Data from ChEMBL document CHEMBL5113414, “New TRPM8 blockers exert anticancer activity over castration-resistant prostate cancer models” (Eur J Med Chem, 2022).
Calls of active or inactive are those of the source. The rule behind the calls is not given here.

Test system: CWR22R
Test: Inhibition of R1881-induced DNA synthesis in human 22Rv1 cells at 1 to 10 uM incubated for 18 hrs by BrdU incorporation assay
Format: functional, cell-based
Settings: dose 1-10 µM

SMILES	inhibition
COC(=O)[C@H](Cc1ccc(N)cc1)N(Cc1ccccc1)Cc1ccccc1	Active
COC(=O)[C@H](Cc1ccc(O)c(O)c1)N(Cc1ccccc1)Cc1ccccc1	Active
COC(=O)[C@H](Cc1ccc([N+](=O)[O-])cc1)N(Cc1ccccc1)Cc1ccccc1	Active

Test system: LNCaP C4-2B
Test: Inhibition of androgen-resistant human LNCaP C4-2B cells at 1 uM incubated for 18 hrs by BrdU incorporation assay
Format: functional, cell-based
Settings: not given

SMILES	inhibition
COC(=O)[C@H](Cc1ccc(N)cc1)N(Cc1ccccc1)Cc1ccccc1	Active
COC(=O)[C@H](Cc1ccc(O)c(O)c1)N(Cc1ccccc1)Cc1ccccc1	Active
COC(=O)[C@H](Cc1ccc([N+](=O)[O-])cc1)N(Cc1ccccc1)Cc1ccccc1	Active

Target: Transient receptor potential cation channel subfamily M member 8 (Rattus norvegicus) (UniProt Q8R455)
Test: Inhibition of rat TRPM8 channel transfected in HEK293 cells assessed as inhibition of menthol-induced calcium currents at 0.01 to 10 uM at -60 mV measured for 90 secs by whole cell patch clamp method
Format: cell-based
Settings: dose 0.01-10 µM, time 90.0 sec, DDE = dose-dependent effect

Sequence of Transient receptor potential cation channel subfamily M member 8 (Rattus norvegicus) (Q8R455 whole entry, looked up): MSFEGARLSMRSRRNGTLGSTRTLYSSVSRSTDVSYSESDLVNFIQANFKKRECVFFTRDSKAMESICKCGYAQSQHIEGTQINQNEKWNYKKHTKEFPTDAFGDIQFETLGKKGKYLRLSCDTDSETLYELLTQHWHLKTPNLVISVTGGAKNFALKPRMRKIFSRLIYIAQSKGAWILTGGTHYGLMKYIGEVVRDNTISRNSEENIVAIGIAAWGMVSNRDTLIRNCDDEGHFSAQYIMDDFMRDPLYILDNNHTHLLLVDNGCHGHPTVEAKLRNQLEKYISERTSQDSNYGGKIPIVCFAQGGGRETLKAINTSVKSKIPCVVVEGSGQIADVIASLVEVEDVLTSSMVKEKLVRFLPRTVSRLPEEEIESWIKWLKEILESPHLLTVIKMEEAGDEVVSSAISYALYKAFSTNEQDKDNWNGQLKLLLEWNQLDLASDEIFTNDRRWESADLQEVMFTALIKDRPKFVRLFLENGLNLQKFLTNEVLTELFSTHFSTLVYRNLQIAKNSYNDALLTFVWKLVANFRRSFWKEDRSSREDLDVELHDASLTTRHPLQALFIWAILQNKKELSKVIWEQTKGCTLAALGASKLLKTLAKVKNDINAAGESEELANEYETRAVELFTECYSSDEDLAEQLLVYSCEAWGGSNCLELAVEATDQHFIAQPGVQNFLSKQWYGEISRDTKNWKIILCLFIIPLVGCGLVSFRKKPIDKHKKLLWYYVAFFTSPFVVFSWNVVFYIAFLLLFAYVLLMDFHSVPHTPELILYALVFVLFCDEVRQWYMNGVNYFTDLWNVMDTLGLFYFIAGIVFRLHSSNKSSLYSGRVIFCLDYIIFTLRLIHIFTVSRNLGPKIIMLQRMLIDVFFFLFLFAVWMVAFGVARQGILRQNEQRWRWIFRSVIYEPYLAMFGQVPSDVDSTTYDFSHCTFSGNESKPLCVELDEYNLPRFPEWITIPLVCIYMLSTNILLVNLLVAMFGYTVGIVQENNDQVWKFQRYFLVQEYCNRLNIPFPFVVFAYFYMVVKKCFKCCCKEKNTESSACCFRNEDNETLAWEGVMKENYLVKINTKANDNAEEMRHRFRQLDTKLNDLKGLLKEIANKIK

inhibition	SMILES
Dde	COC(=O)[C@H](Cc1ccc(N)cc1)N(Cc1ccccc1)Cc1ccccc1
Dde	COC(=O)[C@H](Cc1ccc(O)c(O)c1)N(Cc1ccccc1)Cc1ccccc1
Dde	COC(=O)[C@H](Cc1ccc([N+](=O)[O-])cc1)N(Cc1ccccc1)Cc1ccccc1

Test system: PNT2
Test: Inhibition of R1881-induced DNA synthesis in human PNT2 cells at 1 uM incubated for 18 hrs by BrdU incorporation assay
Format: functional, cell-based
Settings: not given

SMILES	inhibition
COC(=O)[C@H](Cc1ccc(N)cc1)N(Cc1ccccc1)Cc1ccccc1	Active

Test system: LNCaP C4-2B
Test: Inhibition of androgen-resistant human LNCaP C4-2B cells at 0.1 uM incubated for 18 hrs by BrdU incorporation assay
Format: functional, cell-based
Settings: not given

SMILES	inhibition
COC(=O)[C@H](Cc1ccc([N+](=O)[O-])cc1)N(Cc1ccccc1)Cc1ccccc1	Active

Test system: CWR22R
Test: Inhibition of R1881-induced cell spheroid size of human 22Rv1 cells at 1 uM with medium replacement for every 3 days incubated for 17 days by phase contrast microscopy
Format: functional, cell-based
Settings: time 17.0 day

SMILES	inhibition
COC(=O)[C@H](Cc1ccc(N)cc1)N(Cc1ccccc1)Cc1ccccc1	Active
COC(=O)[C@H](Cc1ccc(O)c(O)c1)N(Cc1ccccc1)Cc1ccccc1	Active
COC(=O)[C@H](Cc1ccc([N+](=O)[O-])cc1)N(Cc1ccccc1)Cc1ccccc1	Active

Test system: LNCaP
Test: Inhibition of R1881-induced cell spheroid size of human LNCaP cells at 1 uM with medium replacement for every 3 days incubated for 17 days by phase contrast microscopy
Format: functional, cell-based
Settings: time 17.0 day

SMILES	inhibition
COC(=O)[C@H](Cc1ccc(N)cc1)N(Cc1ccccc1)Cc1ccccc1	Active
COC(=O)[C@H](Cc1ccc(O)c(O)c1)N(Cc1ccccc1)Cc1ccccc1	Active
COC(=O)[C@H](Cc1ccc([N+](=O)[O-])cc1)N(Cc1ccccc1)Cc1ccccc1	Active

Target: T1, Transient receptor potential cation channel subfamily M member 8 (Rattus norvegicus, UniProt Q8R455)
Test: Antagonist activity at rat TRPM8 channel transfected in HEK293 cells assessed as inhibition of menthol-induced calcium currents at -60 mV measured for 90 secs by whole cell patch clamp method
Format: cell-based
Settings: not given

T1 sequence (Q8R455 whole entry): as the sequence (Q8R455 whole entry, looked up) above

IC50 [nM]	SMILES
110	COC(=O)[C@H](Cc1ccc(N)cc1)N(Cc1ccccc1)Cc1ccccc1
100	COC(=O)[C@H](Cc1ccc(O)c(O)c1)N(Cc1ccccc1)Cc1ccccc1
60	COC(=O)[C@H](Cc1ccc([N+](=O)[O-])cc1)N(Cc1ccccc1)Cc1ccccc1

Target: T1, Transient receptor potential cation channel subfamily M member 8
Test: Antagonist activity at rat TRPM8 channel transfected in HEK293 cells assessed as inhibition of calcium currents by Fluo-4 NW dye based fluorimetric assay
Format: cell-based
Settings: not given

SMILES	IC50 [nM]
O=C(NCc1ccc(F)cc1)[C@@H]1Cc2cc(O)c(O)cc2[C@H](c2ccc(F)cc2)N1	17500
COC(=O)[C@H](Cc1ccc(O)c(O)c1)N(Cc1ccccc1)Cc1ccccc1	490
O=C(NCc1ccc(F)cc1)[C@@H]1Cc2cc(O)c(O)cc2[C@@H](c2ccc(F)cc2)N1	850
O=C1[C@@H]2Cc3cc(O)c(O)cc3[C@@H](c3ccc(F)cc3)N2C(=O)N1c1cccc(C(F)(F)F)c1	1200
O=C1[C@H]2Cc3cc(O)c(O)cc3[C@H](c3ccc(F)cc3)N2C(=O)N1Cc1ccc(F)cc1	2200
O=C1[C@H]2Cc3cc(O)c(O)cc3[C@H](c3ccc(F)cc3)N2C(=O)N1c1cccc(C(F)(F)F)c1	2100
O=C1[C@@H]2Cc3cc(O)c(O)cc3[C@@H](c3ccc(F)cc3)N2C(=O)N1Cc1ccc(F)cc1	1700

Now those with a lower IC50, led by results:

IC50 [nM]	SMILES
210	COC(=O)[C@H](Cc1ccc(N)cc1)N(Cc1ccccc1)Cc1ccccc1
320	COC(=O)[C@H](Cc1ccccc1)N(Cc1ccccc1)Cc1ccccc1
250	COC(=O)[C@H](Cc1ccc(O)cc1)N(Cc1ccccc1)Cc1ccccc1
290	COC(=O)[C@H](Cc1ccc(C)cc1)N(Cc1ccccc1)Cc1ccccc1
280	COC(=O)[C@H](Cc1ccc(Cl)cc1)N(Cc1ccccc1)Cc1ccccc1
110	COC(=O)[C@H](Cc1ccc([N+](=O)[O-])cc1)N(Cc1ccccc1)Cc1ccccc1

Test system: LNCaP
Test: Inhibition of R1881-induced DNA synthesis in human LNCaP cells at 0.01 to 10 uM incubated for 18 hrs by BrdU incorporation assay
Format: functional, cell-based
Settings: dose 0.01-10 µM

SMILES	inhibition
COC(=O)[C@H](Cc1ccc(N)cc1)N(Cc1ccccc1)Cc1ccccc1	Active
COC(=O)[C@H](Cc1ccc([N+](=O)[O-])cc1)N(Cc1ccccc1)Cc1ccccc1	Active

Test system: PC-3
Test: Inhibition of DNA synthesis in human PC-3 cells at 0.01 to 10 uM incubated for 18 hrs by BrdU incorporation assay
Format: functional, cell-based
Settings: dose 0.01-10 µM

SMILES	inhibition
COC(=O)[C@H](Cc1ccc(N)cc1)N(Cc1ccccc1)Cc1ccccc1	Active
COC(=O)[C@H](Cc1ccc(O)c(O)c1)N(Cc1ccccc1)Cc1ccccc1	Active
COC(=O)[C@H](Cc1ccc([N+](=O)[O-])cc1)N(Cc1ccccc1)Cc1ccccc1	Active

Test system: PNT2
Test: Inhibition of R1881-induced DNA synthesis in human PNT2 cells at 10 uM incubated for 18 hrs by BrdU incorporation assay
Format: functional, cell-based
Settings: not given

SMILES	inhibition
COC(=O)[C@H](Cc1ccc(N)cc1)N(Cc1ccccc1)Cc1ccccc1	Active
COC(=O)[C@H](Cc1ccc(O)c(O)c1)N(Cc1ccccc1)Cc1ccccc1	Active
COC(=O)[C@H](Cc1ccc([N+](=O)[O-])cc1)N(Cc1ccccc1)Cc1ccccc1	Active

Test system: PNT2
Test: Inhibition of DNA synthesis in human PNT2 cells at 0.01 to 10 uM incubated for 18 hrs by BrdU incorporation assay
Format: functional, cell-based
Settings: dose 0.01-10 µM

SMILES	inhibition
COC(=O)[C@H](Cc1ccc(N)cc1)N(Cc1ccccc1)Cc1ccccc1	Active
COC(=O)[C@H](Cc1ccc(O)c(O)c1)N(Cc1ccccc1)Cc1ccccc1	Active
COC(=O)[C@H](Cc1ccc([N+](=O)[O-])cc1)N(Cc1ccccc1)Cc1ccccc1	Active
